Experimental data published in US20240043403A1, “HETEROARYL CARBOXAMIDE COMPOUND” (Astellas Pharma Inc., priority 2020, published 2024).
pIC50: −log10 of the molar value. Structures can show the parent of a compound that is named as a salt.

Target: human recombinant DGK ξ (Homo sapiens (Human), UniProt Q13574)
Test: Evaluation of DGK ξ inhibitory effect (ADP-Glo Kinase Assay)
Format: biochemical
Conditions: ADP-Glo luminescence
Description: Test Example 1. Evaluation of DGK ξ Inhibitory Effect
The inhibitory effect of a test compound on human recombinant DGK ξ (Cama Biosciences, Inc., 12-410-20N) was examined by the following method in which detection is performed with ADP-Glo™ Kinase Assay (Promega Corporation).
To a 384-well plate (Greiner Bio-One Co., Ltd.), 3 μL of a DGK ξ enzyme dissolved in an assay buffer (40 mM Tris-HCl pH 7.5, 10 mM MgCl2, 1 mM dithiothreitol (DTT) and 0.1 mg/mL bovine serum albumin (BSA)) (90 ng/mL) was added, and 3 μL of the test compound diluted with the same assay buffer was added so that an intended final concentration was obtained. The mixture was left standing at room temperature for 15 minutes, 3 μL of a substrate (150 μM 1-oleoyl-2-acetyl-sn-glycerol (Sigma-Aldrich Co. LLC), 480 μM phosphatidylserine (Avanti, Inc.) and 150 μM UltraPure-ATP (attached to ADP-Glo)) was then added, and the mixture was left standing at room temperature for 30 minutes to react. Thereafter, 3 μL of an ADP-Glo Reagent was added, and the mixture was left standing at room temperature for 40 minutes to stop the enzyme reaction. Further, 6 μL of a Kinase-Detection Reagent was added, the mixture was left standing at room temperature for 30 minutes, and the luminescence was then measured using ARVO X3 (PerkinElmer, Inc.). The half maximal inhibitory concentration (IC50) was calculated by Sigmoid-Emax model non-linear regression analysis, where the signal value in solvent treatment was set to 0% inhibition and the signal value without addition of the DGK ξ enzyme was set to 100% inhibition. […] In the table. Ex represents the number of each Example described below.

Sequence of human recombinant DGK ξ (Q13574 whole entry): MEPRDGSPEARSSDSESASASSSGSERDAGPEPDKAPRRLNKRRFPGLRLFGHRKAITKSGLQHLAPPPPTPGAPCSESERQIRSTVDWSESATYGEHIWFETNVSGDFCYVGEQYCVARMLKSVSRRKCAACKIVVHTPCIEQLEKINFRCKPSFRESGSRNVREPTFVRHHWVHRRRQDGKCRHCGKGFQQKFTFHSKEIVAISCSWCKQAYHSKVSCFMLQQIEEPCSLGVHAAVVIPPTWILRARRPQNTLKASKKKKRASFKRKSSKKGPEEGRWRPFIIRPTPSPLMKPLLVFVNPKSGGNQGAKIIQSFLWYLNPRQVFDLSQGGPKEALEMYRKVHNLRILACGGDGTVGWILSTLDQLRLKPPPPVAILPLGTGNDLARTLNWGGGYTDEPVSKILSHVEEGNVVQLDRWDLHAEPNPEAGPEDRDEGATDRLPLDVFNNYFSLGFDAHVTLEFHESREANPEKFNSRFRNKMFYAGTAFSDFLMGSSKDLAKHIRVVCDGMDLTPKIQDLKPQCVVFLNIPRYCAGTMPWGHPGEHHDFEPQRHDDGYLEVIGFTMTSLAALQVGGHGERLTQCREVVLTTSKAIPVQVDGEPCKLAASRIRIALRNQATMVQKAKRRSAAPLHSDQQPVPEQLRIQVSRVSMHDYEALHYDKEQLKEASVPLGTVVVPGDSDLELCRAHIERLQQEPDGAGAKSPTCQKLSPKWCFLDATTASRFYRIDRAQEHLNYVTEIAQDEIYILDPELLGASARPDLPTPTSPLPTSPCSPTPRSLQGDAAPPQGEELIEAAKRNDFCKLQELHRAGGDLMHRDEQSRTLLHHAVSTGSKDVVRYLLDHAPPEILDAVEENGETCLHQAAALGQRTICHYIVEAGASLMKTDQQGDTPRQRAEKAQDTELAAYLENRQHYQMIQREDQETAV

SMILES: NCCOc1cc(-c2c(NC(=O)c3ccn(-c4ccnnc4)n3)ccc(OC3CCC3)c2C(F)(F)F)ccn1 [Example 79]
- pIC50: 8.11

SMILES: CNC[C@H]1CN(c2c(NC(=O)c3ccn(-c4ccnnc4)n3)ccc(OC3CCCC3)c2C(F)(F)F)CCN1C [Example 44]
- pIC50: 8.07

SMILES: NCCOc1cc(-c2c(NC(=O)c3coc(-c4ccnnc4)n3)ccc(OC3CCC3)c2C(F)(F)F)ccn1 [Example 67]
- pIC50: 7.46

SMILES: NC[C@@H]1CCCN(c2c(NC(=O)c3ccn(C(F)F)n3)ccc(Oc3ccccc3)c2C(F)(F)F)C1 [Example 3]
- pIC50: 6.82

SMILES: NC[C@@H]1CCCN(c2c(NC(=O)c3ccn(CC(F)F)n3)ccc(Oc3ccccc3)c2C(F)(F)F)C1 [Example 2]
- pIC50: 7.55

SMILES: CNC[C@H]1CN(c2c(NC(=O)c3coc(-c4ccnnc4)n3)ccc(Oc3ccccc3F)c2C(F)(F)F)CCN1C [Example 22, N-[4-(2-fluorophenoxy)-2-{(3S)-4-methyl-3-[(methylamino)methyl]piperazin-yl}-3-(trifluoromethyl)phenyl]-2-(pyridazin-4-yl)-1,3-oxazole-4-carboxamide trihydrochloride]
- pIC50: 7.74

SMILES: NCCCn1cc(-c2c(NC(=O)c3coc(-c4ccnnc4)n3)ccc(OC3CCC3)c2C(F)(F)F)cn1 [Example 73]
- pIC50: 7.37

SMILES: CNC[C@H]1CN(c2c(NC(=O)c3cc(C)n(-c4ccnnc4)n3)ccc(Oc3ccccc3F)c2C(F)(F)F)CCN1C [Example 92]
- pIC50: 7.04

SMILES: CNC[C@H]1CN(c2c(NC(=O)c3ccn(-c4ccnnc4)n3)ccc(OC3CC3)c2C(F)(F)F)CCN1C [Example 88]
- pIC50: 6.96

SMILES: O=C(Nc1ccc(OC2CC2)c(C(F)(F)F)c1-c1cnn(C2CCNCC2)c1)c1ccn(-c2ccnnc2)n1 [Example 72]
- pIC50: 7.21

SMILES: Cc1cc(C(=O)Nc2ccc(Oc3ccccc3F)c(C(F)(F)F)c2N2CCC[C@@H](CN)C2)nn1-c1ccnnc1 [Example 37]
- pIC50: 7.64

SMILES: N[C@H]1CCN2CCN(c3c(NC(=O)c4ccn(-c5ccnnc5)n4)ccc(Oc4ccccc4F)c3C(F)(F)F)C[C@H]12 [Example 84]
- pIC50: 8.68

SMILES: CNC[C@H]1CN(c2c(NC(=O)c3coc(-c4ccnnc4)n3)ccc(C3CCCC3)c2C(F)(F)F)CCN1C [Example 49]
- pIC50: 8.11

SMILES: CNC[C@H]1CN(c2c(NC(=O)c3ccn(-c4ccnnc4)n3)ccc(Oc3ccc(F)cc3)c2C(F)(F)F)CCN1C [Example 101]
- pIC50: 7.16

SMILES: Cc1ccccc1Oc1ccc(NC(=O)c2ccn(-c3ccnnc3)n2)c(N2CCC[C@@H](CN)C2)c1C(F)(F)F [Example 62]
- pIC50: 8.16

SMILES: NC[C@@H]1CCCN(c2c(NC(=O)c3ccn(-c4ccnnc4)n3)ccc(Oc3ccccn3)c2C(F)(F)F)C1 [Example 61]
- pIC50: 7.34

SMILES: CNC[C@H]1CN(c2c(NC(=O)c3ccn(CC(F)F)n3)ccc(Oc3ccccc3F)c2F)CCN1C [Example 25]
- pIC50: 7.14

SMILES: CNC[C@H]1CN(c2c(NC(=O)c3ccn(CC(F)F)n3)cc(F)c(Oc3ccccc3)c2F)CCN1C [Example 107]
- pIC50: 6.66

SMILES: CNC[C@H]1CN(c2c(NC(=O)c3ccn(-c4ccnnc4)n3)ccc(C3=CCOCC3)c2C(F)(F)F)CCN1C [Example 50]
- pIC50: 7.26

SMILES: NC[C@@H]1CCCN(c2c(NC(=O)c3cccn(CC(F)(F)F)c3=O)ccc(Oc3ccccc3)c2C(F)(F)F)C1 [Example 110]
- pIC50: 6.72

SMILES: CN[C@@H]1CCN2CCN(c3c(NC(=O)c4coc(-c5ccnnc5)n4)ccc(Oc4ccccc4F)c3C(F)(F)F)C[C@@H]12 [Example 83]
- pIC50: 8.46

SMILES: N[C@@H]1CCN2CCN(c3c(NC(=O)c4coc(-c5ccnnc5)n4)ccc(OC4CCC4)c3C(F)(F)F)C[C@@H]12 [Example 75]
- pIC50: 7.16

SMILES: NC[C@@H]1CCCN(c2c(NC(=O)c3cccn(CC(F)F)c3=O)ccc(Oc3ccccc3F)c2C(F)(F)F)C1 [Example 11]
- pIC50: 7.46

SMILES: CN1CCN(c2c(NC(=O)c3ccn(-c4ccnnc4)n3)ccc(OC3CCC3)c2C(F)(F)F)C[C@@H]1CN [Example 51]
- pIC50: 7.77

SMILES: CN1CCN(c2c(NC(=O)c3ccn(-c4ccnnc4)n3)ccc(Oc3ccc(F)cc3)c2C(F)(F)F)C[C@@H]1CN [Example 52]
- pIC50: 7.34

SMILES: N#Cc1ccccc1Oc1ccc(NC(=O)c2ccn(CC(F)F)n2)c(N2CCC[C@@H](CN)C2)c1C(F)(F)F [Example 32]
- pIC50: 7.00

SMILES: CN(C)[C@@H]1CCN2CCN(c3c(NC(=O)c4ccn(-c5ccnnc5)n4)ccc(Oc4ccccc4F)c3C(F)(F)F)C[C@@H]12 [Example 118]
- pIC50: 8.85

SMILES: CNC[C@H]1CN(c2c(NC(=O)c3coc(-c4ccnnc4)n3)cc(F)c(Oc3ccccc3)c2F)CCN1C [Example 106]
- pIC50: 8.12

SMILES: CNCCOc1cccc(-c2c(NC(=O)c3coc(-c4ccnnc4)n3)ccc(OC3CC3)c2C(F)(F)F)c1 [Example 66]
- pIC50: 6.74

SMILES: CN(C)[C@@H]1CCN2CCN(c3c(NC(=O)c4ccn(-c5ccnnc5)n4)ccc(OC4CC4)c3C(F)(F)F)C[C@@H]12 [Example 121]
- pIC50: 7.85

SMILES: CNC[C@H]1CN(c2c(NC(=O)c3coc(-c4ccnnc4)n3)ccc(Oc3ccc(F)cc3)c2C(F)(F)F)CCN1C [Example 102]
- pIC50: 6.68

SMILES: CNCCOc1cc(-c2c(NC(=O)c3coc(-c4ccnnc4)n3)ccc(OC3CCC3)c2C(F)(F)F)ccn1 [Example 69]
- pIC50: 7.22

SMILES: CNC[C@@H]1CN(c2c(NC(=O)c3ccn(-c4ccnnc4)n3)ccc(Oc3ccccc3F)c2C(F)(F)F)CCN1C [Example 123, N-[4-(2-fluorophenoxy)-2-{(3R)-4-methyl-3-[(methylamino)methyl]piperazin1-yl}-3-(trifluoromethyl)phenyl]-1-(pyridazin-4-yl)-1H-pyrazole-3-carboxamide monobutanedioate]
- pIC50: 8.40

SMILES: CNC[C@H]1CN(c2c(NC(=O)c3ccn(-c4ccnnc4)n3)ccc(Oc3ccccc3F)c2Cl)CCN1C [Example 125]
- pIC50: 8.74

SMILES: O=C(Nc1ccc(OC2CCC2)c(C(F)(F)F)c1-c1cnn(C2CCNCC2)c1)c1coc(-c2ccnnc2)n1 [Example 71]
- pIC50: 7.68

SMILES: CNC[C@H]1CN(c2c(NC(=O)c3ccn(-c4ccnnc4)n3)ccc(Oc3ccccc3F)c2C(F)(F)F)CCN1C [Example 122, N-[4-(2-fluorophenoxy)-2-{(3S)-4-methyl-3-[(methylamino)methyl]piperazin1-yl}-3-(trifluoromethyl)phenyl]-1-(pyridazin-4-yl)-1H-pyrazole-3-carboxamide monobutanedioate]
- pIC50: 8.49

SMILES: CN[C@H]1CCN2CCN(c3c(NC(=O)c4ccn(-c5ccnnc5)n4)ccc(Oc4ccccc4F)c3C(F)(F)F)C[C@H]12 [Example 85]
- pIC50: 8.28

SMILES: CNC[C@H]1CN(c2c(NC(=O)c3coc(-c4ccnnc4)n3)ccc(Oc3ccccc3)c2C(F)(F)F)CCN1C [Example 105]
- pIC50: 7.34

SMILES: Cc1cc(C(=O)Nc2ccc(Oc3ccccc3Cl)c(C(F)(F)F)c2N2CCC[C@@H](CN)C2)nn1-c1ccnnc1 [Example 91]
- pIC50: 7.60

SMILES: NC[C@@H]1CCCN(c2c(NC(=O)c3ccn(-c4ccnnc4)n3)ccc(Oc3ccccc3)c2C(F)(F)F)C1 [Example 31]
- pIC50: 7.64

SMILES: CN1CCN(c2c(NC(=O)c3ccn(-c4ccnnc4)n3)ccc(Oc3ccccc3F)c2C(F)(F)F)C[C@@H]1CNC1CC1 [Example 89]
- pIC50: 7.57

SMILES: Cc1cc(C(F)(F)F)n2nc(C(=O)Nc3ccc(Oc4ccccc4)c(C(F)(F)F)c3N3CCC[C@@H](CN)C3)cc2n1 [Example 111]
- pIC50: 6.55

SMILES: CN1CCN(c2c(NC(=O)c3ccn(CC(F)F)n3)ccc(Oc3ccc(F)cc3)c2C(F)(F)F)C[C@@H]1CN [Example 28]
- pIC50: 6.62

SMILES: CN(C)CCOc1cc(-c2c(NC(=O)c3coc(-c4ccnnc4)n3)ccc(OC3CCC3)c2C(F)(F)F)ccn1 [Example 113, N-[4-(cyclobutyloxy)-2-{2-[2-(dimethylamino)ethoxy]pyridin-4-yl}-3-(trifluoromethyl)phenyl]-2-(pyridazin-4-yl)-1,3-oxazole-4-carboxamide]
- pIC50: 7.68

SMILES: O=C(Nc1ccc(Oc2ccccc2F)c(C(F)(F)F)c1N1CCC[C@@H](CNC2CC2)C1)c1ccn(CC(F)F)n1 [Example 10]
- pIC50: 7.03

SMILES: NCCCn1cc(-c2c(NC(=O)c3ccn(-c4ccnnc4)n3)ccc(OC3CCC3)c2C(F)(F)F)cn1 [Example 74]
- pIC50: 7.80

SMILES: NC[C@@H]1CCCN(c2c(NC(=O)c3ccn(CC(F)(F)F)n3)ccc(Oc3ccccc3)c2C(F)(F)F)C1 [Example 109, N-{2-[(3S)-3-(aminomethyl)piperidin-1-yl]-4-phenoxy-3-(trifluoromethyl)phenyl}-1-(2,2,2-trifluoroethyl)-1H-pyrazole-3-carboxamide]
- pIC50: 6.96

SMILES: CNC[C@H]1CN(c2c(NC(=O)c3cnn(-c4ccnnc4)n3)ccc(Oc3ccccc3Cl)c2C(F)(F)F)CCN1C [Example 97]
- pIC50: 7.92

SMILES: CN1CCN(c2c(NC(=O)c3ccn(-c4ccnnc4)n3)ccc(Oc3ccccc3F)c2C(F)(F)F)C[C@@H]1CN [Example 38]
- pIC50: 8.39

SMILES: CNC[C@H]1CN(c2c(NC(=O)c3coc(-c4ccnnc4)n3)ccc(-c3ccccc3F)c2C(F)(F)F)CCN1C [Example 60]
- pIC50: 7.57

SMILES: CN1CCN(c2c(NC(=O)c3ccn(-c4ccnnc4)n3)ccc(Oc3ccccc3Cl)c2Cl)C[C@@H]1CN [Example 56]
- pIC50: 9.05
